Laboratory results reported in patent US9586986B2, “Substituted 7-deazapurine ribonucleosides for therapeutic uses” (Institute of Organic Chemistry and Biochemistry ASCR, v.v.i., priority 2014, dated 2017).

How the values were obtained:
CCRF-CEM = experiment: Cytostatic/cytotoxic MTT assay, CCRF-CEM; type: cell-based; details: Homo sapiens, 72 h incubation, read-out: MTT, IC50 CCRF-CEM
Text: (§1) Unless otherwise stated, all cells were purchased from the […] (ATCC). The CCRF-CEM line is derived from T lymphoblastic leukemia, evincing high chemosenzitivity, K562 represent cells from a […] patient sample with bcr-abl translocation, HCT116 is colorectal tumor cell line and its p53 gene knock-down counterpart (HCT116p53−/−, Horizon Discovery, UK) is a model of human cancers with p53 inactivation frequently associated with poor prognosis, A549 cell line is lung adenocarcinoma. The daunorubicin resistant subline of CCRF-CEM cells (CEM-DNR bulk) and paclitaxel resistant subline K562-TAX were selected in our laboratory by cultivation of maternal cell lines in increasing concentrations of daunorubicine or paclitaxel, respectively. The CEM-DNR cells overexpress mrp-1 and mdr-1 genes, while K562-TAX cells overexpress mdr-1 only. Both proteins belong to the family of ABC transporters and are involved in the primary and/or acquired multidrug resistance phenomenon (ref.: Gottesman, M. M.; Fojo, T.; Bates, S. E. Multidrug resistance in cancer: role of ATP-dependent transporters. Nat. Rev. Cancer. 2002, 2, 48-58. (b) Noskova, V.; Dzubak, P.; Kuzmina, G.; Ludkova, A.; Stehlik, D.; Trojanec, R.; Janostakova, A.; Korinkova, G.; Mihal, V.; Hajduch, M. In vitro chemoresistance profile and expression/function of MDR associated proteins in resistant cell lines derived from CCRF-CEM, K562, A549 and MDA MB 231 parental cells. Neoplasma 2002, 49, 418-425). Non-malignant MRC-5 and BJ cells, derived from normal human fibroblasts, were used as controls. The cells were maintained in Nunc/Corning 80 cm^2 plastic tissue culture flasks and cultured in cell culture medium (DMEM/RPMI 1640 with 5 g/L glucose, 2 mM glutamine, 100 U/mL penicillin, 100 µg/mL streptomycin, 10% fetal calf serum, and NaHCO3). Cell suspensions were prepared and diluted according to the particular cell type and the expected target cell density (25,000-30,000 cells/well based on cell growth characteristics). Cells were added by pipette (80 L) into 96-well microtiter plates. Inoculates were allowed a pre-incubation period of 24 h at 37° C. and 5% CO2 for stabilization. Four-fold dilutions, in 20-L aliquots, of the intended test concentration were added to the microtiter plate walls at time zero. All test compound concentrations were examined in duplicate. Incubation of the cells with the test compounds lasted for 72 h at 37° C., in a 5% CO2 atmosphere at 100% humidity. At the end of the incubation period, the cells were assayed using MTT. Aliquots (10 L) of the MTT stock solution (5 mg/ml) were pipetted into each well and incubated for another 1-4 h. After this incubation period the formazan produced was dissolved by addition of 100 µL/well of 10% aq SDS (pH 5.5), followed by a further incubation at 37° C. overnight. The optical density was measured at 540 nm. The IC50 value, the drug concentration inhibiting the cell growth by 50%, was calculated from appropriate dose-response curves.
(§2) In vitro cytotoxic/cytostatic activity final nucleosides 1-5 was initially evaluated against […] cell lines derived from human solid tumors including lung (A549 cells) and colon (HCT116 and HCT116p53−/−) carcinomas, as well as leukemia cell lines (CCRF-CEM, CEM-DNR, K562 and K562-TAX) and, for comparison, non-malignant BJ and MRC-5 fibroblasts. Concentrations inhibiting the cell growth by 50% (IC50) were determined using a quantitative metabolic staining with 3-(4,5-dimethylthiazol-2-yl)-2,5-diphenyltetrazolium bromide (MTT) (ref.: Denizot, F.; Lang, R. Rapid colorimetric assay for cell growth and survival: Modifications to the tetrazolium dye procedure giving improved sensitivity and reliability. J. Immunol. Meth. 1986, 89, 271-277) following a 3-day treatment.

HL60 = experiment: XTT cytotoxicity assay, HL-60; type: cell-based; details: Homo sapiens, HL-60; 72 h incubation; read-out: XTT, IC50 HL60
Method: (§3) HL-60, Hela S3 and HepG2 cell lines (ATCC) were grown in RPMI-1640 or DMEM medium supplemented with 10% fetal calf serum, […] of streptomycin, 200 U/mL of penicillin G and 4 mM glutamine in a humidified atmosphere containing 5% CO2 at 37° C. Sensitivity of these cell lines to the synthesized compounds was assessed with the use of XTT cell proliferation kit II (Roche Diagnostics GmbH, Mannheim, Germany) according to the manufacturer's instructions. Briefly, cells were seeded in a 96-well plate at a density of 10,000 cells per well (90 μL). After 24 h, 10 μL of the tested compounds were added to the culture media at desired concentration range and incubated for 72 h. After that 50 μL of the XTT solution was added (1 mg/mL XTT+0.383 mg/mL N-methyl dibenzopyrazine methyl sulfate). The absorbance was recorded at 495 nm following a 2 h-incubation with the dye. IC50 values were determined by non-linear regression method using GraphPad Prism version 5.00 for Windows (GraphPad Software, La Jolla, Calif., USA).
(§4) In addition, the anti-proliferative effect was tested against a human T-lymphoblastic leukemia line CCRF-CEM, promyelocytic leukemia HL-60 and cervical carcinoma HeLa S3 growing in liquid suspension. Cell viability was determined following a 3-day incubation using 2,3-bis-(2-methoxy-4-nitro-5-sulfophenyl)-2H-tetrazolium-5-carboxanilide (XTT) assay (ref.: Scudiero, D. A.; Shoemaker, R. H.; Paull, K. D.; Monks, A.; Tierney, S.; Nofziger, T. H.; Currens, M. J.; Seniff, D.; Boyd M. R. Evaluation of a Soluble Tetrazolium/Formazan Assay for Cell Growth and Drug Sensitivity in Culture Using Human and Other Tumor Cell Lines. Cancer Res. 1988, 48, 4827-4833).

MRC-5 = experiment: Cytostatic/cytotoxic MTT assay, MRC-5 fibroblasts; type: cell-based; details: Homo sapiens, MRC5; non-malignant fibroblasts, 72 h; read-out: MTT, IC50 MRC-5
Text: as §1, §2

K562-TAX = experiment: Cytostatic/cytotoxic MTT assay, K562-TAX; type: cell-based; details: Homo sapiens, paclitaxel resistant subline, 72 h, read-out: MTT, IC50 K562-TAX
Text: as §1, §2
(§5) Multidrug resistance is a major therapeutic problem in cancer chemotherapy. […]

K562 = experiment: Cytostatic/cytotoxic MTT assay, K562; type: cell-based; details: Homo sapiens, K562; 72 h incubation; read-out: MTT, IC50 K562
Text: as §1, §2

HeLa S3 = experiment: XTT cytotoxicity assay, HeLa S3; type: cell-based; details: Homo sapiens, HeLa S3; 72 h incubation; read-out: XTT, IC50 HeLa S3
Method: as §3, §4

HepG2 = experiment: XTT cytotoxicity assay, HepG2; type: cell-based; details: Homo sapiens, HepG2; 72 h incubation; read-out: XTT, IC50 HepG2
Method: as §3

BJ = experiment: Cytostatic/cytotoxic MTT assay, BJ fibroblasts; type: cell-based; details: Homo sapiens, non-malignant fibroblasts, 72 h, read-out: MTT, IC50 BJ
Text: as §1, §2

HCT116 = experiment: Cytostatic/cytotoxic MTT assay, HCT116; type: cell-based; details: Homo sapiens, HCT-116; 72 h incubation; read-out: MTT, IC50 HCT116
Text: as §1, §2, §5

CEM-DNR-bulk = experiment: Cytostatic/cytotoxic MTT assay, CEM-DNR-bulk; type: cell-based; details: Homo sapiens; daunorubicin resistant subline, 72 h; read-out: MTT, IC50 CEM-DNR-bulk
Text: as §1, §2, §5

A549 = experiment: Cytostatic/cytotoxic MTT assay, A549; type: cell-based; details: Homo sapiens, A549; 72 h incubation; read-out: MTT, IC50 A549
Text: as §1, §2

HCT116p53-/- = experiment: Cytostatic/cytotoxic MTT assay, HCT116p53-/-; type: cell-based; details: Homo sapiens, HCT-116; 72 h incubation; read-out: MTT, IC50 HCT116 p53-/-
Text: as §1, §2, §5

SMILES | IC50 (CCRF-CEM) [µM] | IC50 (HL60) [µM] | IC50 (MRC-5) [µM] | IC50 (K562-TAX) [µM] | IC50 (K562) [µM] | IC50 (HeLa S3) [µM] | IC50 (HepG2) [µM] | IC50 (BJ) [µM] | IC50 (HCT116) [µM] | IC50 (CEM-DNR-bulk) [µM] | IC50 (A549) [µM] | IC50 (HCT116p53-/-) [µM] | melting point [°C]
CNc1ncnc2c1c(I)cn2[C@@H]1O[C@H](CO)[C@@H](O)[C@H]1O [Compound 3h, 5-Iodo-4-methylamino-7-(β-D-ribofuranosyl)-7H-pyrrolo[2,3-d]pyrimidine] | > 100 | > 20 | > 100 | > 20 | > 100 | > 20 | > 20 | > 100 | > 100 | > 20 | > 100 | > 100 | 
Cc1ncnc2c1c(I)cn2[C@@H]1O[C@H](CO)[C@@H](O)[C@H]1O [Compound 5h, 5-Iodo-4-methyl-7-(β-D-ribofuranosyl)-7H-pyrrolo[2,3-d]pyrimidine] | 5.48 | 2.65 | 13.3 | > 20 | 17.8 | 4.08 | 3.46 | > 100 | 4.72 | 12.6 | 12.2 | 7.57 | 
Cc1ncnc2c1c(Br)cn2[C@@H]1O[C@H](CO)[C@@H](O)[C@H]1O [Compound 5i, 5-Bromo-4-methyl-7-(β-D-ribofuranosyl)-7H-pyrrolo[2,3-d]pyrimidine] | 15 | 7.24 | 24.4 | 15.8 | > 20 | 13.8 | 5.55 | > 100 | 15.7 | > 20 | > 20 | 19.6 | 188 to 189
